Values quoted from earlier work in patent EP2566462B1, “IMMEDIATE RELEASE FORMULATIONS AND DOSAGE FORMS OF GAMMA-HYDROXYBUTYRATE” (Jazz Pharmaceuticals Inc., priority 2010, dated 2011).

Assays:
[1] = in man, given orally
[2] = system: patients with hyperkinetic movement disorders including ethanol responsive myoclonus and essential tremor; settings: open label, five patients

## O=C([O-])CCCO.[Na+] [sodium oxybate, Sodium gamma-hydroxybutyrate]
[1]
  plasma half-life: about 45 minutes
[2]
  blinded ratings of ethanol responsive myoclonus and tremor: dose-dependent improvements
  tolerability: tolerated at doses that provided clinical benefit
